In patent US6737383B1, “Herbicidal oxadiazolidines” (priority 1999, dated 2004):

Experiments:
bedstraw = experiment: Test B pre/postemergence bedstraw; type: in vivo, Galium aparine
Method in brief: (§1)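 Test chemicals in a non-phytotoxic solvent mixture with surfactant were sprayed preemergence onto planted seeds and postemergence onto plants 2 to 18 cm tall (1- to 4-leaf stage). After twelve to sixteen days in a greenhouse, injury was visually rated against untreated controls from 0 (no effect) to 10 (complete control).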

blackgrass = experiment: Test B pre/postemergence blackgrass; type: in vivo, Alopecurus myosuroides
Method in brief: as §1

wild oat = experiment: Test B pre/postemergence wild oat; type: in vivo, Avena fatua
Method in brief: as §1

corn = experiment: Test B pre/postemergence corn; type: in vivo, Zea mays
Method in brief: as §1

surinam grass = experiment: Test B pre/postemergence surinam grass; type: in vivo, Brachiaria decumbens
Method in brief: as §1

cocklebur = experiment: Test B pre/postemergence cocklebur; type: in vivo, Xanthium strumarium
Method in brief: as §1

giant foxtail = experiment: Test B pre/postemergence giant foxtail; type: in vivo, Setaria faberii
Method in brief: as §1

sugar beet = experiment: Test B pre/postemergence sugar beet; type: in vivo, Beta vulgaris
Method in brief: as §1

purple nutsedge = experiment: Test B pre/postemergence purple nutsedge; type: in vivo, Cyperus rotundus
Method in brief: as §1

rice = experiment: Test B flood test rice; type: in vivo, Oryza sativa
Method in brief: (§2)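 Plants were grown to the 2-leaf stage before treatment with test chemical, then held in a greenhouse for twelve to sixteen days. Injury was visually rated against untreated controls on a 0–10 scale, where 0 is no effect and 10 is complete control.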

smallflower flatsedge = experiment: Test B flood test smallflower flatsedge; type: in vivo, Cyperus difformis
Method in brief: as §2

velvetleaf = experiment: Test B pre/postemergence velvetleaf; type: in vivo, Abutilon theophrasti
Method in brief: as §1

bamyardgrass = experiment: Test B flood test barnyardgrass; type: in vivo, Echinochloa crus-galli
Method in brief: as §2

soybean = experiment: Test B pre/postemergence soybean; type: in vivo, Glycine max
Method in brief: as §1

crabgrass = experiment: Test B pre/postemergence crabgrass; type: in vivo, Digitaria sanguinalis
Method in brief: as §1

pigweed = experiment: Test B pre/postemergence pigweed; type: in vivo, Amaranthus retroflexus
Method in brief: as §1

[1] = Postemergence, Rate 125 g/ha, scale of 0 to 10 where 0 is no effect and 10 is complete control
[2] = Preemergence, Rate 125 g/ha, 0 is no effect, 10 is complete control
[3] = Preemergence, Rate 250 g/ha, scale 0 to 10, 0 is no effect, 10 is complete control
[4] = Preemergence, Rate 500 g/ha, scale 0 to 10 (0 no effect, 10 complete control)
[5] = Rate 62 g/ha, Postemergence, scale of 0 to 10 where 0 is no effect and 10 is complete control
[6] = Rate 250 g/ha, Postemergence, scale 0 to 10, 0 is no effect, 10 is complete control
[7] = Preemergence, Rate 62 g/ha, scale 0 to 10 (0 no effect, 10 complete control)
[8] = Rate 500 g/ha, Postemergence, scale 0 to 10
[9] = Rate 62 g/ha, headed Pre-emergence (flood test species), scale 0 to 10 (0 no effect, 10 complete control)
[10] = Rate 125 g/ha, Pre-emergence, flood test species, scale 0 to 10 where 0 is no effect and 10 is complete control
[11] = Rate 250 g/ha, headed Pre-emergence (flood test species), scale 0 to 10 (0 no effect, 10 complete control)
[12] = Rate 500 g/ha, headed Pre-emergence (flood test species), scale 0 to 10 (0 no effect, 10 complete control)

CC(C)N(C(=O)n1oc(=O)n(C(C)C)c1=O)c1ccc(F)cc1 [Compound 131]
10: Bedstraw plant response rating (0 to 10 scale) (bedstraw; [2]) | Bedstraw plant response rating (bedstraw; [3]) | Bedstraw plant response rating (bedstraw; [4]) | Blackgrass plant response rating (blackgrass; [7]) | Blackgrass plant response rating (0 to 10 scale) (blackgrass; [2]) | Blackgrass plant response rating (blackgrass; [3]) | Blackgrass plant response rating (blackgrass; [4]) | Wild oats plant response rating (wild oat; [7]) | Wild oats plant response rating (0 to 10 scale) (wild oat; [2]) | Wild oats plant response rating (wild oat; [3]) | Wild oats plant response rating (wild oat; [4]) | Wild oats plant response rating (wild oat; [8]) | Corn plant response rating (corn; [4]) | Giant foxtail plant response rating (giant foxtail; [7]) | Giant foxtail plant response rating (0 to 10 scale) (giant foxtail; [2]) | Giant foxtail plant response rating (giant foxtail; [3]) | Giant foxtail plant response rating (giant foxtail; [4]) | Sugarbeets plant response rating (sugar beet; [3]) | Sugarbeets plant response rating (sugar beet; [4]) | Velvetleaf plant response rating (velvetleaf; [4]) | Crabgrass plant response rating (crabgrass; [4]) | Redroot pigweed plant response rating (0 to 10 scale) (pigweed; [2]) | Redroot pigweed plant response rating (pigweed; [3]) | Redroot pigweed plant response rating (pigweed; [4]) | Redroot pigweed plant response rating (pigweed; [8])
9: Plant response rating, Bedstraw (bedstraw; [6]) | Bedstraw plant response rating (bedstraw; Rate 500 g/ha, Postemergence, scale 0 to 10, 0 no effect, 10 complete control) | Blackgrass plant response rating (blackgrass; [8]) | Plant response rating, Wild oats (wild oat; [6]) | Corn plant response rating (corn; [3]) | B. signalgrass plant response rating (surinam grass; [4]) | B. signalgrass plant response rating (surinam grass; Rate 500 g/ha, Postemergence, scale of 0 to 10 where 0 is no effect and 10 is complete control) | Plant response rating, Giant foxtail (giant foxtail; [6]) | Giant foxtail plant response rating (giant foxtail; [8]) | Velvetleaf plant response rating (velvetleaf; [3]) | Barnyardgrass plant response rating (bamyardgrass; [11]) | Plant response rating, Barnyardgrass (bamyardgrass; [12]) | Crabgrass plant response rating (crabgrass; [3]) | Crabgrass plant response rating (crabgrass; [8])
3: Wild oats plant response rating (wild oat; [1]) | Corn plant response rating (corn; [5]) | Cocklebur plant response rating (cocklebur; [1]) | Sugarbeets plant response rating (sugar beet; [1]) | S. Flatsedge plant response rating (smallflower flatsedge; [10]) | Soybean plant response rating (0 to 10 scale) (soybean; [2])
6: Plant response rating, Corn (corn; [6]) | Plant response rating, Sugarbeets (sugar beet; [6]) | Redroot pigweed plant response rating (pigweed; [1])
5: Corn plant response rating (corn; [1]) | Corn plant response rating (0 to 10 scale) (corn; [2]) | B. signalgrass plant response rating (surinam grass; [1]) | Plant response rating, Cocklebur (cocklebur; [6]) | Cocklebur plant response rating (cocklebur; [8]) | Rice plant response rating (rice; [11]) | Soybean plant response rating (soybean; [5]) | Crabgrass plant response rating (crabgrass; [5])
7: Bedstraw plant response rating (bedstraw; [5]) | Corn plant response rating (corn; [8]) | B. signalgrass plant response rating (surinam grass; [7]) | Sugarbeets plant response rating (sugar beet; [7]) | Velvetleaf plant response rating (velvetleaf; [1]) | Velvetleaf plant response rating (velvetleaf; [7]) | Soybean plant response rating (soybean; [1]) | Crabgrass plant response rating (crabgrass; [1]) | Crabgrass plant response rating (0 to 10 scale) (crabgrass; [2]) | Redroot pigweed plant response rating (pigweed; [7])
0: Corn plant response rating (corn; [7]) | Cocklebur plant response rating (cocklebur; [7]) | Cocklebur plant response rating (0 to 10 scale) (cocklebur; [2]) | Nutsedge plant response rating (purple nutsedge; [1]) | Nutsedge plant response rating (purple nutsedge; [7]) | Nutsedge plant response rating (0 to 10 scale) (purple nutsedge; [2]) | Nutsedge plant response rating (purple nutsedge; [3]) | Nutsedge plant response rating (purple nutsedge; [4]) | Nutsedge plant response rating (purple nutsedge; [5]) | Plant response rating, Nutsedge (purple nutsedge; [6]) | Rice plant response rating (rice; [9]) | Rice plant response rating (rice; [10]) | S. Flatsedge plant response rating (smallflower flatsedge; [9]) | Velvetleaf plant response rating (velvetleaf; [5]) | Barnyardgrass plant response rating (bamyardgrass; [9]) | Barnyardgrass plant response rating (bamyardgrass; [10])
4: B. signalgrass plant response rating (surinam grass; [5])
8: Bedstraw plant response rating (bedstraw; [1]) | Blackgrass plant response rating (blackgrass; [1]) | Blackgrass plant response rating (blackgrass; [5]) | Plant response rating, Blackgrass (blackgrass; [6]) | B. signalgrass plant response rating (0 to 10 scale) (surinam grass; [2]) | B. signalgrass plant response rating (surinam grass; [3]) | Plant response rating, B. signalgrass (surinam grass; [6]) | Giant foxtail plant response rating (giant foxtail; [1]) | Giant foxtail plant response rating (giant foxtail; [5]) | Sugarbeets plant response rating (0 to 10 scale) (sugar beet; [2]) | Sugarbeets plant response rating (sugar beet; [8]) | Plant response rating, Rice (rice; [12]) | S. Flatsedge plant response rating (smallflower flatsedge; [11]) | Plant response rating, S. Flatsedge (smallflower flatsedge; [12]) | Velvetleaf plant response rating (0 to 10 scale) (velvetleaf; [2]) | Plant response rating, Velvetleaf (velvetleaf; [6]) | Velvetleaf plant response rating (velvetleaf; [8]) | Soybean plant response rating (soybean; [3]) | Soybean plant response rating (soybean; [4]) | Plant response rating, Soybean (soybean; [6]) | Soybean plant response rating (soybean; [8]) | Plant response rating, Crabgrass (crabgrass; [6]) | Plant response rating, Redroot pigweed (pigweed; [6])
2: Wild oats plant response rating (wild oat; [5]) | Cocklebur plant response rating (cocklebur; [3]) | Cocklebur plant response rating (cocklebur; [4]) | Cocklebur plant response rating (cocklebur; [5]) | Sugarbeets plant response rating (sugar beet; [5]) | Nutsedge plant response rating (purple nutsedge; [8]) | Soybean plant response rating (soybean; [7]) | Crabgrass plant response rating (crabgrass; [7]) | Redroot pigweed plant response rating (pigweed; [5])
